The results in this text go back to publication PMC11801377, “A uniquely efficacious type of CFTR corrector with complementary mode of action” (Science Advances, 2024).

T1 sequence (P13569 with tags, fused parts or gaps DEL508-508/G550E/R553M/R555K): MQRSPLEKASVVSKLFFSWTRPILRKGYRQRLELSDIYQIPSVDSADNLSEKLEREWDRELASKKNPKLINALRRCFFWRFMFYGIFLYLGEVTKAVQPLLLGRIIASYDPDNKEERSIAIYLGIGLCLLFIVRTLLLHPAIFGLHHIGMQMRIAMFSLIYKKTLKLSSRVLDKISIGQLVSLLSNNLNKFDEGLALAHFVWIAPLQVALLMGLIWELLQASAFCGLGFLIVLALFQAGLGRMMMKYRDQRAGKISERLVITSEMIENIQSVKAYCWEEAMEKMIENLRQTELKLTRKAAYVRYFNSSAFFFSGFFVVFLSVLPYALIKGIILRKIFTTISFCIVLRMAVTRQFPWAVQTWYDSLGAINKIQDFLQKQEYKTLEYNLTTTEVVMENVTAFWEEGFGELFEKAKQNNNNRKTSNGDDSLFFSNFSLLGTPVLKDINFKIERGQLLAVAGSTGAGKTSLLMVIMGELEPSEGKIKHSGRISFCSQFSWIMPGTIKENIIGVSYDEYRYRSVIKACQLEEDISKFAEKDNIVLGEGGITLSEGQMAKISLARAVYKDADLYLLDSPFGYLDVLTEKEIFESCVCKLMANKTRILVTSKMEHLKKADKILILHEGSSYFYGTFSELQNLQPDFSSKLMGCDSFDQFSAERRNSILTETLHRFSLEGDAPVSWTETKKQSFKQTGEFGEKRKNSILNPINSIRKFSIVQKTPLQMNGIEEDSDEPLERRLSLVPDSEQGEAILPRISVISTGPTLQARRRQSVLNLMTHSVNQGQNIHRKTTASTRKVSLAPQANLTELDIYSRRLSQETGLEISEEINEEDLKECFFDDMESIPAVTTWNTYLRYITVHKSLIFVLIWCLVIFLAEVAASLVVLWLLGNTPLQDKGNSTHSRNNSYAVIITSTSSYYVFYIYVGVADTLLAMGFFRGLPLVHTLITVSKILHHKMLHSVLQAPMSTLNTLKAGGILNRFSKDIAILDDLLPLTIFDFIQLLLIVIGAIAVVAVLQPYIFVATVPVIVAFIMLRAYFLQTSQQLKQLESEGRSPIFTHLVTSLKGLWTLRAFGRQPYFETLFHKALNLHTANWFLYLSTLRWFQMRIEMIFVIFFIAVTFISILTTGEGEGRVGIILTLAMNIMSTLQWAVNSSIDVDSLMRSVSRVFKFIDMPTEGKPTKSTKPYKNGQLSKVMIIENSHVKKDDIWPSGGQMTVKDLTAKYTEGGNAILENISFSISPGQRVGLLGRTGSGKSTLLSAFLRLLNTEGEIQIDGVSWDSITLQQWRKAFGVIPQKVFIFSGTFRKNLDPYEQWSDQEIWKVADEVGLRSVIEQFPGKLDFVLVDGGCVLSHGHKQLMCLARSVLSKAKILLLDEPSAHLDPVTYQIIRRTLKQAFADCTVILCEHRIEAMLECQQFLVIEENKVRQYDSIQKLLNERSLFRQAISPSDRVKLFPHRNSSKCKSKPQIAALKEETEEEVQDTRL

The test addresses T1, F508del-CFTR-G550E.R553M.R555K (3TS) (Homo sapiens, UniProt P13569, DEL508-508/G550E/R553M/R555K).
T1 construct: expressed in transfected cells; host or cells: T-REx HEK293
In words: CFTR immunoblotting in HEK-TREx cells expressing thermostabilized F508del-CFTR (3TS). In kind it is cell-based. The settings on record: 48 hours, IDOR-3 2 μM, IDOR-4 0.4 μM, TEZ 2 μM, ELX 0.4 μM. The source says: The human CFTR expressing HEK cell pools with the mutations described below were generated by integrase-mediated homologous recombination of the CFTR sequence into the T-REx HEK293 background (Thermo Fisher Scientific). This expression system allows the tetracycline-inducible expression of genes of interest from one defined insertion site. Parental T-REx-HEK293 cells were cultivated in growth medium: Dulbecco’s modified Eagle’s medium + GlutaMAX-I (#31966, Life Technologies), 10% dialyzed FBS (Gibco, #26400), penicillin (100 U/ml), streptomycin (100 μg/ml), hygromycin B (0.1 mg/ml; Life Technologies), blasticidin (5 μg/ml; Invitrogen, #R210-01), and 0.1 mM nonessential amino acid solution (Invitrogen, #11140-035). Recombinant T-REx-HEK-CFTR cells were generated by lipofectamine transfection (Life Technologies) of plasmids containing mutated versions of CFTR (RefSeq NM_000492) and then cultivated in selection medium [growth medium containing Geneticin (1 mg/ml) (Invitrogen, #10131-027) instead of hygromycin]. The plasmid constructs were synthetized by GENEART (Thermo Fisher Scientific) and designed with the WT CFTR intron 5 to 6 (880 nucleotides) to prevent leaky expression issues during the cloning process in bacteria. For evaluation of corrector efficacies on second-site suppressor mutants, the following mutations were introduced into the CFTR.F508del gene sequence: G550E.R553M.R555K and G550E.R553M.R555K.R1070W. The following plasmids expressing different truncated versions of CFTR.F508del gene were generated: K381X, delF508-M837X, delF508-E1172X, and M837-L1480. For the evaluation of different binding sites by site-directed mutagenesis, the following mutations were introduced individually into the CFTR.F508del gene: del14-21, K14A, K14A.R80V, K14A.Y84F, L15W, R1102A, and L195W. Deletion of the peptide stretching amino acids 14 to 21 was also introduced into truncated K381X: del14-21.K381X. […]
A general note: A western blot detects proteins with antibodies after separation by electrophoresis.
Turning to `Cc1nn(C)cc1S(=O)(=O)NC(=O)c1ccc(-n2ccc(OCC(C)(C)C(F)(F)F)n2)nc1N1C[C@@H](C)CC1(C)C` [ELX, elexacaftor], the “improvement of C-band expression after introduction of 3TS mutations” value is recorded as ~ 4 fold.
In the case of `CC(C)(CO)c1cc2cc(NC(=O)C3(c4ccc5c(c4)OC(F)(F)O5)CC3)c(F)cc2n1C[C@@H](O)CO` [TEZ, tezacaftor] it was ~ 4 fold.
In the case of `COc1cc(CCNC(=O)C2CC(=O)N(C)C(CC(C)C)C(=O)N3CCCCC3C(=O)NC(Cc3ccccc3)COc3ccc4ncc(F)cc4c3C(=O)N2)on1` (stereo not drawn) [IDOR-3] it was ~ 1.5 fold.
